Our source for the IC50 and tumor growth values is US20190125672A1, “Fabrication of Magnetic Vesicles for Biomedical Imaging and Delivery” (University of Maryland, College Park, priority 2017, published 2019).

≈ marks a conversion by molar mass, not a printed value.

The subject of one assay is U87MG cells. The experiment in a line: MTT cytotoxicity assay. The settings on record: Dox concentration. Background: Formazan colour is commonly taken as a measure of viable cells.
The test system of another assay is U87MG tumors. Briefly: In vivo tumor suppression. Set-up: species or system mice. The settings on record: without magnet; Dox-equivalent dose 5 mg/kg i.v.; over 30 days. Here is the method:
The therapeutic efficacy was evaluated by monitoring the tumor volume change every two days over 30 days (FIG. 61A).
The U87MG tumor-bearing mice were randomly divided into six groups with 5 mice in each group. The first group of mice received PBS, as control group; the second group was injected with Dox solution, as “Dox” group; the third group was injected with Dox-MuMVs without magnetic attraction, as “magnet- RGD-” group; the fourth group was injected with RGD-Dox-MuMVs without magnetic enrichment, as “magnet-RGD+” group; the fifth group was injected with Dox-MuMVs under magnetic attraction, as “magnet+RGD-” group; the sixth group was injected with RGD-Dox-MuMVs under magnetic attraction, as “[…]” group. All the experimental groups (2-6 groups) are dispersed in 150 μl PBS before intravenous administration with a Dox-equivalent dose of 5 mg/kg. For the groups under magnetic attraction, the magnet was applied for 1 h along with injection of therapeutic agents. […] after the corresponding treatments, the volume of tumors was measured every other day and calculated by the following equation: V=L×W^2/2. The body weight of the mice was also evaluated during this period to reveal the systemic toxicity of the delivery platform.

Method for U87MG cells: Cells were plated at a density of 1×10^4 in 96-well plates and cultured at 37° C. for 24 hours. Then the culture medium was replaced and the cells were incubated with different concentrations of Dox, Mu magento-vesicles, Dox-Mu magento-vesicles, and RGD-Dox-Mu magento-vesicles for 1 hour. The concentrations of Fe in MuMVs, Dox-MuMVs and RGD-Dox-MuMVs as well as the concentrations of Dox in free drug, Dox-MuMVs and RGD-Dox-MuMVs groups were kept constant for the purpose of comparison. Then the culture medium was replaced with fresh medium and the cells were incubated for another 12 hours, followed by the addition of 20 μL of the MTT solution (5 mg/mL). After incubation for 4 hours, culture supernatants were carefully removed and 100 μL of DMSO was added into each well to dissolve the purple precipitate. The concentration of the reduced MTT in each well was determined spectrophotometrically by subtraction of the absorbance reading at 650 nm from that measured at 570 nm using a microplate reader (SpectraMax M5). Cell viabilities were presented as the percentage of the absorbance of Dox, MuMVs, Dox-MuMVs and RGD-Dox-MuMVs treated cells to the absorbance of non-treated cells and plotted as Fe and Dox concentrations.

By IC50 is commonly meant the concentration at which inhibition is half-maximal. A high value points to weaker potency in that assay. With `COc1cccc2c1C(=O)c1c(O)c3c(c(O)c1C2=O)C[C@@](O)(C(=O)CO)C[C@@H]3O[C@H]1C[C@H](N)[C@H](O)[C@H](C)O1` [Dox, doxorubicin], the IC50 with U87MG cells was 0.47 µg/mL (≈ 0.865 µM). Moreover, the tumor growth result in the assay with U87MG tumors is given as “Minor delay in tumor growth”.
